Test results published in US20230085307A1, “PYRIDAZINONE COMPOUND AND HERBICIDE” (NISSAN CHEMICAL CORPORATION, priority 2019, published 2023).

Columns and labels:
barnyard grass [1] = assay: Test Example 3: herbicidal effect by foliage application, Wagner pot (Table 18, symbol H); format: in vivo, barnyard grass (Echinochloa crus-galli); details: 320 g/ha
Summary of the method: (§1)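 Plants were sown in alluvial soil held under 0.1–0.5 cm standing water and grown 14 days in a greenhouse at 25–30 °C. An emulsifiable formulation, water-diluted to the set dose, was then sprayed onto the foliage, and effects were scored three weeks later using previously defined criteria.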

Chinese sprangletop = assay: Test Example 3: herbicidal effect by foliage application, Wagner pot (Table 18, symbol D); format: in vivo, chinese sprangletop (Leptochloa chinensis); details: 320 g/ha
Summary of the method: as §1

rice flat sedge = assay: Test Example 3: herbicidal effect by foliage application, Wagner pot (Table 18, symbol E); format: in vivo, rice flat sedge (Cyperus iria); details: 320 g/ha
Summary of the method: as §1

southern crabgrass [2] = assay: Test Example 4: herbicidal effect by soil treatment (Table 19, symbol F); format: in vivo, southern crabgrass (Digitaria ciliaris); details: amount of applied herbicide 320 g/ha
Summary of the method: (§2)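 Step 1: sow seeds in sterilized diluvial soil, cover ~1.5 cm. Step 2: spray diluted emulsion onto soil surface at predetermined rate. Step 3: greenhouse, 25–30° C, three weeks. Step 4: grade effect on each plant by earlier criteria.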

green foxtail [3] = assay: Test Example 4: herbicidal effect by soil treatment (Table 19, symbol G); format: in vivo, green foxtail (Setaria viridis); details: amount of applied herbicide 320 g/ha
Summary of the method: as §2

barnyard grass [4] = assay: Test Example 4: herbicidal effect by soil treatment (Table 19, symbol H); format: in vivo, barnyard grass (Echinochloa crus-galli); details: amount of applied herbicide 320 g/ha
Summary of the method: as §2

wild oat [5] = assay: Test Example 4: herbicidal effect by soil treatment (Table 19, symbol I); format: in vivo, wild oat (Avena fatua); details: amount of applied herbicide 320 g/ha
Summary of the method: as §2

blackgrass [6] = assay: Test Example 4: herbicidal effect by soil treatment (Table 19, symbol J); format: in vivo, blackgrass (Alopecurus myosuroides); details: amount of applied herbicide 320 g/ha
Summary of the method: as §2

Italian ryegrass [7] = assay: Test Example 4: herbicidal effect by soil treatment (Table 19, symbol K); format: in vivo, Italian ryegrass (Lolium multiflorum); details: amount of applied herbicide 320 g/ha
Summary of the method: as §2

windgrass [8] = assay: Test Example 4: herbicidal effect by soil treatment (Table 19, symbol L); format: in vivo, windgrass (Apera spica-venti); details: amount of applied herbicide 320 g/ha
Summary of the method: as §2

velvetleaf [9] = assay: Test Example 4: herbicidal effect by soil treatment (Table 19, symbol M); format: in vivo, velvetleaf (Abutilon theophrasti); details: amount of applied herbicide 320 g/ha
Summary of the method: as §2

redroot pigweed [10] = assay: Test Example 4: herbicidal effect by soil treatment (Table 19, symbol N); format: in vivo, redroot pigweed (Amaranthus retroflexus); details: amount of applied herbicide 320 g/ha
Summary of the method: as §2

lambsquarters [11] = assay: Test Example 4: herbicidal effect by soil treatment (Table 19, symbol O); format: in vivo, lambsquarters (Chenopodium album); details: amount of applied herbicide 320 g/ha
Summary of the method: as §2

chickweed [12] = assay: Test Example 4: herbicidal effect by soil treatment (Table 19, symbol P); format: in vivo, common chickweed (Stellaria media); details: amount of applied herbicide 320 g/ha
Summary of the method: as §2

false cleavers [13] = assay: Test Example 4: herbicidal effect by soil treatment (Table 19, symbol Q); format: in vivo, false cleavers (Galium spurium); details: amount of applied herbicide 320 g/ha
Summary of the method: as §2

persian speedwell [14] = assay: Test Example 4: herbicidal effect by soil treatment (Table 19, symbol R); format: in vivo, Persian speedwell (Veronica persica); details: amount of applied herbicide 320 g/ha
Summary of the method: as §2

southern crabgrass [15] = assay: Test Example 5: herbicidal effect by foliage application, plastic box (Table 20, symbol F); format: in vivo, southern crabgrass (Digitaria ciliaris); details: foliage application, 320 g/ha, three weeks after application
Summary of the method: (§3)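 Foliar spray test: emulsion formulation diluted in water to a set application rate, sprayed onto 14-day-old plants raised in diluvial soil at 25° C to 30° C under glass. Both herbicidal effect and crop effect rated visually three weeks later.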

green foxtail [16] = assay: Test Example 5: herbicidal effect by foliage application, plastic box (Table 20, symbol G); format: in vivo, green foxtail (Setaria viridis); details: foliage application, 320 g/ha, three weeks after application
Summary of the method: as §3

barnyard grass [17] = assay: Test Example 5: herbicidal effect by foliage application, plastic box (Table 20, symbol H); format: in vivo, barnyard grass (Echinochloa crus-galli); details: foliage application, 320 g/ha, three weeks after application
Summary of the method: as §3

wild oat [18] = assay: Test Example 5: herbicidal effect by foliage application, plastic box (Table 20, symbol I); format: in vivo, wild oat (Avena fatua); details: foliage application, 320 g/ha, three weeks after application
Summary of the method: as §3

blackgrass [19] = assay: Test Example 5: herbicidal effect by foliage application, plastic box (Table 20, symbol J); format: in vivo, blackgrass (Alopecurus myosuroides); details: foliage application, 320 g/ha, three weeks after application
Summary of the method: as §3

Italian ryegrass [20] = assay: Test Example 5: herbicidal effect by foliage application, plastic box (Table 20, symbol K); format: in vivo, Italian ryegrass (Lolium multiflorum); details: foliage application, 320 g/ha, three weeks after application
Summary of the method: as §3

windgrass [21] = assay: Test Example 5: herbicidal effect by foliage application, plastic box (Table 20, symbol L); format: in vivo, windgrass (Apera spica-venti); details: foliage application, 320 g/ha, three weeks after application
Summary of the method: as §3

velvetleaf [22] = assay: Test Example 5: herbicidal effect by foliage application, plastic box (Table 20, symbol M); format: in vivo, velvetleaf (Abutilon theophrasti); details: foliage application, 320 g/ha, three weeks after application
Summary of the method: as §3

redroot pigweed [23] = assay: Test Example 5: herbicidal effect by foliage application, plastic box (Table 20, symbol N); format: in vivo, redroot pigweed (Amaranthus retroflexus); details: foliage application, 320 g/ha, three weeks after application
Summary of the method: as §3

lambsquarters [24] = assay: Test Example 5: herbicidal effect by foliage application, plastic box (Table 20, symbol O); format: in vivo, lambsquarters (Chenopodium album); details: foliage application, 320 g/ha, three weeks after application
Summary of the method: as §3

chickweed [25] = assay: Test Example 5: herbicidal effect by foliage application, plastic box (Table 20, symbol P); format: in vivo, common chickweed (Stellaria media); details: foliage application, 320 g/ha, three weeks after application
Summary of the method: as §3

false cleavers [26] = assay: Test Example 5: herbicidal effect by foliage application, plastic box (Table 20, symbol Q); format: in vivo, false cleavers (Galium spurium); details: foliage application, 320 g/ha, three weeks after application
Summary of the method: as §3

persian speedwell [27] = assay: Test Example 5: herbicidal effect by foliage application, plastic box (Table 20, symbol R); format: in vivo, Persian speedwell (Veronica persica); details: foliage application, 320 g/ha, three weeks after application
Summary of the method: as §3

CON=C(C)c1ccc(-c2sc3ccccc3c2-c2c(O)c(C)nn(C)c2=O)cc1 [1-043]
herbicidal effect on H (barnyard grass), rating 0-5 (barnyard grass [1]): 5 (Herbicidal rate of 90% or more (almost completely withered))
herbicidal effect on D (Chinese sprangletop), rating 0-5 (Chinese sprangletop): 5 (Herbicidal rate of 90% or more (almost completely withered))
herbicidal effect on E (rice flat sedge), rating 0-5 (rice flat sedge): 0 (Herbicidal rate of 5% or less (almost no effect))
herbicidal effect rating, F: southern crabgrass (southern crabgrass [2]): 0 (Herbicidal rate of 5% or less (almost no effect))
herbicidal effect rating, G: green foxtail (green foxtail [3]): 5 (Herbicidal rate of 90% or more (almost completely withered))
herbicidal effect rating, H: barnyard grass (barnyard grass [4]): 3 (Herbicidal rate of 40% or more and less than 70%)
herbicidal effect rating, I: wild oat (wild oat [5]): 0 (Herbicidal rate of 5% or less (almost no effect))
herbicidal effect rating, J: blackgrass (blackgrass [6]): 0 (Herbicidal rate of 5% or less (almost no effect))
herbicidal effect rating, K: Italian ryegrass (Italian ryegrass [7]): 5 (Herbicidal rate of 90% or more (almost completely withered))
herbicidal effect rating, L: windgrass (windgrass [8]): 0 (Herbicidal rate of 5% or less (almost no effect))
herbicidal effect rating, M: velvetleaf (velvetleaf [9]): 0 (Herbicidal rate of 5% or less (almost no effect))
herbicidal effect rating, N: redroot pigweed (redroot pigweed [10]): 5 (Herbicidal rate of 90% or more (almost completely withered))
herbicidal effect rating, O: lambsquarters (lambsquarters [11]): 5 (Herbicidal rate of 90% or more (almost completely withered))
herbicidal effect rating, P: chickweed (chickweed [12]): 4 (Herbicidal rate of 70% or more and less than 90%)
herbicidal effect rating, Q: false cleavers (false cleavers [13]): 0 (Herbicidal rate of 5% or less (almost no effect))
herbicidal effect rating, R: persian speedwell (persian speedwell [14]): 4 (Herbicidal rate of 70% or more and less than 90%)
herbicidal effect grade, F: southern crabgrass (southern crabgrass [15]): 4 (Herbicidal rate of 70% or more and less than 90%)
herbicidal effect grade, G: green foxtail (green foxtail [16]): 4 (Herbicidal rate of 70% or more and less than 90%)
herbicidal effect grade, H: barnyard grass (barnyard grass [17]): 3 (Herbicidal rate of 40% or more and less than 70%)
herbicidal effect grade, I: wild oat (wild oat [18]): 2 (Herbicidal rate of 20% or more and less than 40%)
herbicidal effect grade, J: blackgrass (blackgrass [19]): 4 (Herbicidal rate of 70% or more and less than 90%)
herbicidal effect grade, K: Italian ryegrass (Italian ryegrass [20]): 5 (Herbicidal rate of 90% or more (almost completely withered))
herbicidal effect grade, L: windgrass (windgrass [21]): 1 (Herbicidal rate of 5% or more and less than 20%)
herbicidal effect grade, M: velvetleaf (velvetleaf [22]): 5 (Herbicidal rate of 90% or more (almost completely withered))
herbicidal effect grade, N: redroot pigweed (redroot pigweed [23]): 5 (Herbicidal rate of 90% or more (almost completely withered))
herbicidal effect grade, O: lambsquarters (lambsquarters [24]): 4 (Herbicidal rate of 70% or more and less than 90%)
herbicidal effect grade, P: chickweed (chickweed [25]): 5 (Herbicidal rate of 90% or more (almost completely withered))
herbicidal effect grade, Q: false cleavers (false cleavers [26]): 2 (Herbicidal rate of 20% or more and less than 40%)
herbicidal effect grade, R: persian speedwell (persian speedwell [27]): 5 (Herbicidal rate of 90% or more (almost completely withered))

COc1c(F)cccc1-c1sc2ccccc2c1-c1c(O)c(C)nn(C)c1=O [1-054]
herbicidal effect on H (barnyard grass), rating 0-5 (barnyard grass [1]): 5 (Herbicidal rate of 90% or more (almost completely withered))
herbicidal effect on D (Chinese sprangletop), rating 0-5 (Chinese sprangletop): 3 (Herbicidal rate of 40% or more and less than 70%)
herbicidal effect on E (rice flat sedge), rating 0-5 (rice flat sedge): 4 (Herbicidal rate of 70% or more and less than 90%)
herbicidal effect rating, F: southern crabgrass (southern crabgrass [2]): 0 (Herbicidal rate of 5% or less (almost no effect))
herbicidal effect rating, G: green foxtail (green foxtail [3]): 0 (Herbicidal rate of 5% or less (almost no effect))
herbicidal effect rating, H: barnyard grass (barnyard grass [4]): 2 (Herbicidal rate of 20% or more and less than 40%)
herbicidal effect rating, I: wild oat (wild oat [5]): 0 (Herbicidal rate of 5% or less (almost no effect))
herbicidal effect rating, J: blackgrass (blackgrass [6]): 3 (Herbicidal rate of 40% or more and less than 70%)
herbicidal effect rating, K: Italian ryegrass (Italian ryegrass [7]): 3 (Herbicidal rate of 40% or more and less than 70%)
herbicidal effect rating, L: windgrass (windgrass [8]): 0 (Herbicidal rate of 5% or less (almost no effect))
herbicidal effect rating, M: velvetleaf (velvetleaf [9]): 0 (Herbicidal rate of 5% or less (almost no effect))
herbicidal effect rating, N: redroot pigweed (redroot pigweed [10]): 0 (Herbicidal rate of 5% or less (almost no effect))
herbicidal effect rating, O: lambsquarters (lambsquarters [11]): 0 (Herbicidal rate of 5% or less (almost no effect))
herbicidal effect rating, P: chickweed (chickweed [12]): 0 (Herbicidal rate of 5% or less (almost no effect))
herbicidal effect rating, Q: false cleavers (false cleavers [13]): 0 (Herbicidal rate of 5% or less (almost no effect))
herbicidal effect rating, R: persian speedwell (persian speedwell [14]): 0 (Herbicidal rate of 5% or less (almost no effect))
herbicidal effect grade, F: southern crabgrass (southern crabgrass [15]): 2 (Herbicidal rate of 20% or more and less than 40%)
herbicidal effect grade, G: green foxtail (green foxtail [16]): 4 (Herbicidal rate of 70% or more and less than 90%)
herbicidal effect grade, H: barnyard grass (barnyard grass [17]): 3 (Herbicidal rate of 40% or more and less than 70%)
herbicidal effect grade, I: wild oat (wild oat [18]): 3 (Herbicidal rate of 40% or more and less than 70%)
herbicidal effect grade, J: blackgrass (blackgrass [19]): 0 (Herbicidal rate of 5% or less (almost no effect))
herbicidal effect grade, K: Italian ryegrass (Italian ryegrass [20]): 4 (Herbicidal rate of 70% or more and less than 90%)
herbicidal effect grade, L: windgrass (windgrass [21]): 0 (Herbicidal rate of 5% or less (almost no effect))
herbicidal effect grade, M: velvetleaf (velvetleaf [22]): 5 (Herbicidal rate of 90% or more (almost completely withered))
herbicidal effect grade, N: redroot pigweed (redroot pigweed [23]): 5 (Herbicidal rate of 90% or more (almost completely withered))
herbicidal effect grade, O: lambsquarters (lambsquarters [24]): 5 (Herbicidal rate of 90% or more (almost completely withered))
herbicidal effect grade, P: chickweed (chickweed [25]): 5 (Herbicidal rate of 90% or more (almost completely withered))
herbicidal effect grade, Q: false cleavers (false cleavers [26]): 4 (Herbicidal rate of 70% or more and less than 90%)
herbicidal effect grade, R: persian speedwell (persian speedwell [27]): 1 (Herbicidal rate of 5% or more and less than 20%)
